Converted amounts (≈) assume the structure as drawn. Numbered stars: 1 amine (or outer) side, 2 acyl side, 3 side chain; on linkers, the order of the positions; unused ones are H or OH. Peptide text beside a SMILES is read from it. * marks the point of attachment. C20 diacid = O=C(O)CCCCCCCCCCCCCCCCCCC(=O)*; C18 diacid = O=C(O)CCCCCCCCCCCCCCCCC(=O)*; γGlu = O=C(O)[C@H](CCC(=O)[*:2])N[*:1]
Assay: Assay (IV) determination of solubility
Type: physicochemical
Procedure: Assay (IV)—Determination of Solubility
The mimylin peptide was dissolved in water at ˜500 nmol/ml and mixed 1:1 with a series of buffers (100 mM glycylglycine pH 3.0, 100 mM glycylglycine pH 4.0, 100 mM glycylglycine pH 5.0, 100 mM bistrispropane pH 6.0, 100 mM bistrispropane pH 6.5, 100 mM bistrispropane pH 7.0, 100 mM bistrispropane pH 7.5, 100 mM bistrispropane pH 8.0).

| Solubility (pH 3.0) | Solubility (pH 4.0) | Solubility (pH 5.0) | Solubility (pH 6.0) | Solubility (pH 6.5) | Solubility (pH 7.0) | Solubility (pH 7.5) | Solubility (pH 8.0) | solubility at 18 h (pH 4.0) [µM] | solubility at 18 h (pH 5.0) [µM] | SMILES |
| --- | --- | --- | --- | --- | --- | --- | --- | --- | --- | --- |
| ≧200 μM | ≧200 μM | ≧200 μM | ≧200 μM | ≧200 μM | ≧200 μM | ≧200 μM | ≧200 μM | – | – | CC(C)C[C@H](NC(=O)[C@H](CCC(=O)O)NC(=O)[C@H](Cc1cnc[nH]1)NC(=O)[C@H](CC(C)C)NC(=O)[C@H](CCC(=O)O)NC(=O)[C@H](C)NC(=O)[C@H](CO)NC(=O)[C@H](CC(C)C)NC(=O)[C@H](CCCCN)NC(=O)CNC(=O)[C@H](CC(C)C)NC(=O)[C@@H](NC(=O)[C@H](C)NC(=O)[C@@H](NC(=O)[C@H](CO)NC(=O)[C@H](CC(C)C)NC(=O)[C@H](CCC(=O)O)NC(=O)[C@H](CO)NC(=O)[C@H](C)NC(=O)[C@H](CCC(=O)O)NC(=O)CCCCCCCCCCCCCCCCC(=O)O)[C@@H](C)O)C(C)C)C(=O)N[C@@H](C)C(=O)N[C@H](C(=O)N[C@@H](CC(C)C)C(=O)N1CCC[C@H]1C(=O)N[C@@H](CCCCN)C(=O)N[C@H](C(=O)N[C@@H](CCC(=O)O)C(=O)N[C@H](C(=O)NCC(=O)N1CCC[C@H]1C(=O)N[C@@H](CCC(=O)O)C(=O)N[C@@H](CO)C(=O)N1CCC[C@H]1C(N)=O)[C@@H](C)O)[C@@H](C)O)[C@@H](C)O [compound 39, [N-terminal(C18 diacid), 9V, 12K, 25K]mimylin] ({C18 diacid}-EASELSTAVLGKLSAELHELATLPKTETGPESP-NH2) |
| ≧200 μM | – | – | ≧200 μM | ≧200 μM | ≧200 μM | ≧200 μM | ≧200 μM | 150 (≈ 562 µg/mL) | 145 (≈ 543 µg/mL) | CC(C)C[C@H](NC(=O)[C@H](CCC(=O)O)NC(=O)[C@H](Cc1cnc[nH]1)NC(=O)[C@H](CC(C)C)NC(=O)[C@H](CCC(=O)O)NC(=O)[C@H](C)NC(=O)[C@H](CO)NC(=O)[C@H](CC(C)C)NC(=O)[C@H](CCCNC(=N)N)NC(=O)CNC(=O)[C@H](CC(C)C)NC(=O)[C@@H](NC(=O)[C@H](C)NC(=O)[C@@H](NC(=O)[C@H](CO)NC(=O)[C@@H](NC(=O)[C@H](CCC(=O)O)NC(=O)[C@H](CO)NC(=O)[C@H](C)NC(=O)[C@H](CCC(=O)O)NC(=O)CCCCCCCCCCCCCCCCC(=O)O)C(C)C)[C@@H](C)O)C(C)C)C(=O)N[C@@H](C)C(=O)N[C@H](C(=O)N[C@@H](CC(C)C)C(=O)N1CCC[C@H]1C(=O)N[C@@H](CCCNC(=N)N)C(=O)N[C@H](C(=O)N[C@@H](CCC(=O)O)C(=O)N[C@H](C(=O)NCC(=O)N1CCC[C@H]1C(=O)N[C@@H](CCC(=O)O)C(=O)N[C@@H](CO)C(=O)N1CCC[C@H]1C(N)=O)[C@@H](C)O)[C@@H](C)O)[C@@H](C)O [compound 24, [N-terminal(C18 diacid), 5V, 9V]mimylin] ({C18 diacid}-EASEVSTAVLGRLSAELHELATLPRTETGPESP-NH2) |
| ≧200 μM | ≧200 μM | ≧200 μM | ≧200 μM | ≧200 μM | ≧200 μM | ≧200 μM | ≧200 μM | – | – | CC(C)C[C@H](NC(=O)[C@H](C)NC(=O)[C@@H](NC(=O)[C@H](CO)NC(=O)[C@H](CC(C)C)NC(=O)[C@H](CCC(=O)O)NC(=O)[C@H](CO)NC(=O)[C@H](C)NC(=O)[C@H](CCC(=O)O)NC(=O)CCCCCCCCCCCCCCCCC(=O)O)[C@@H](C)O)C(=O)N[C@@H](CC(C)C)C(=O)NCC(=O)N[C@@H](CCCNC(=N)N)C(=O)N[C@@H](CC(C)C)C(=O)N[C@@H](CO)C(=O)N[C@@H](C)C(=O)N[C@@H](CCC(=O)O)C(=O)N[C@@H](CC(C)C)C(=O)N[C@@H](Cc1cnc[nH]1)C(=O)N[C@@H](CCC(=O)O)C(=O)N[C@@H](CC(C)C)C(=O)N[C@@H](C)C(=O)N[C@H](C(=O)N[C@@H](CC(C)C)C(=O)N1CCC[C@H]1C(=O)N[C@@H](CCCNC(=N)N)C(=O)N[C@H](C(=O)N[C@@H](CCC(=O)O)C(=O)N[C@H](C(=O)NCC(=O)N1CCC[C@H]1C(=O)N[C@@H](CCC(=O)O)C(=O)N[C@@H](CO)C(=O)N1CCC[C@H]1C(N)=O)[C@@H](C)O)[C@@H](C)O)[C@@H](C)O [compound 14, [N-terminal(C18 diacid), 9L]mimylin] ({C18 diacid}-EASELSTALLGRLSAELHELATLPRTETGPESP-NH2) |
| ≧200 μM | ≧200 μM | ≧200 μM | ≧200 μM | ≧200 μM | ≧200 μM | ≧200 μM | ≧200 μM | – | – | CC(C)C[C@H](NC(=O)[C@H](C)NC(=O)[C@H](C)NC(=O)[C@@H](NC(=O)[C@H](CO)NC(=O)[C@H](CC(C)C)NC(=O)[C@H](CCC(=O)O)NC(=O)[C@H](CO)NC(=O)[C@H](C)NC(=O)CC[C@H](NC(=O)CCCCCCCCCCCCCCCCCCC(=O)O)C(=O)O)[C@@H](C)O)C(=O)NCC(=O)N[C@@H](Cc1cnc[nH]1)C(=O)N[C@@H](CC(C)C)C(=O)N[C@@H](CO)C(=O)N[C@@H](C)C(=O)N[C@@H](CCC(=O)O)C(=O)N[C@@H](CC(C)C)C(=O)N[C@@H](Cc1cnc[nH]1)C(=O)N[C@@H](CCC(=O)O)C(=O)N[C@@H](CC(C)C)C(=O)N[C@@H](C)C(=O)N[C@H](C(=O)N[C@@H](CC(C)C)C(=O)N1CCC[C@H]1C(=O)N[C@@H](Cc1cnc[nH]1)C(=O)N[C@H](C(=O)N[C@@H](CCC(=O)O)C(=O)N[C@H](C(=O)NCC(=O)N[C@@H](CO)C(=O)NCC(=O)N[C@@H](CO)C(=O)N1CCC[C@H]1C(N)=O)[C@@H](C)O)[C@@H](C)O)[C@@H](C)O [compound 84, [N-terminal(C20 diacid-gGlu), des1, 12H, 25H, 30S, 31G]mimylin] ({C20 diacid-γGlu}-ASELSTAALGHLSAELHELATLPHTETGSGSP-NH2) |

The next lines start with the molecule.

| SMILES | Solubility (pH 3.0) | Solubility (pH 4.0) | Solubility (pH 5.0) | Solubility (pH 6.0) | Solubility (pH 6.5) | Solubility (pH 7.0) | Solubility (pH 7.5) | Solubility (pH 8.0) | solubility at 18 h (pH 4.0) [µM] | solubility at 18 h (pH 5.0) [µM] |
| --- | --- | --- | --- | --- | --- | --- | --- | --- | --- | --- |
| CC(C)C[C@H](NC(=O)[C@H](C)NC(=O)[C@H](C)NC(=O)[C@@H](NC(=O)[C@H](CO)NC(=O)[C@H](CC(C)C)NC(=O)[C@H](CCC(=O)O)NC(=O)[C@H](CO)NC(=O)[C@H](C)NC(=O)[C@H](CCC(=O)O)NC(=O)CC[C@H](NC(=O)CCCCCCCCCCCCCCCCCCC(=O)O)C(=O)O)[C@@H](C)O)C(=O)NCC(=O)N[C@@H](CCCNC(=N)N)C(=O)N[C@@H](CC(C)C)C(=O)N[C@@H](CO)C(=O)N[C@@H](C)C(=O)N[C@@H](CCC(=O)O)C(=O)N[C@@H](CC(C)C)C(=O)N[C@@H](Cc1cnc[nH]1)C(=O)N[C@@H](CCC(=O)O)C(=O)N[C@@H](CC(C)C)C(=O)N[C@@H](C)C(=O)N[C@H](C(=O)N[C@@H](Cc1ccc(O)cc1)C(=O)N1CCC[C@H]1C(=O)N[C@@H](CCCNC(=N)N)C(=O)N[C@H](C(=O)N[C@@H](CCC(=O)O)C(=O)N[C@H](C(=O)NCC(=O)N[C@@H](CO)C(=O)NCC(=O)N[C@@H](CO)C(=O)N1CCC[C@H]1C(N)=O)[C@@H](C)O)[C@@H](C)O)[C@@H](C)O [compound 34, [N-terminal(C20 diacid-gGlu), 23Y, 30S, 31G]mimylin] ({C20 diacid-γGlu}-EASELSTAALGRLSAELHELATYPRTETGSGSP-NH2) | ≧200 μM | ≧200 μM | ≧200 μM | ≧200 μM | ≧200 μM | ≧200 μM | ≧200 μM | ≧200 μM | – | – |
| CC(C)C[C@H](NC(=O)[C@H](C)NC(=O)[C@H](C)NC(=O)[C@@H](NC(=O)[C@H](CO)NC(=O)[C@H](CC(C)C)NC(=O)[C@H](CCC(=O)O)NC(=O)[C@H](CO)NC(=O)[C@H](C)NC(=O)CC[C@H](NC(=O)CCCCCCCCCCCCCCCCCCC(=O)O)C(=O)O)[C@@H](C)O)C(=O)NCC(=O)N[C@@H](CCCNC(=N)N)C(=O)N[C@@H](CC(C)C)C(=O)N[C@@H](CO)C(=O)N[C@@H](C)C(=O)N[C@@H](CCC(=O)O)C(=O)N[C@@H](CC(C)C)C(=O)N[C@@H](Cc1cnc[nH]1)C(=O)N[C@@H](CCC(=O)O)C(=O)N[C@@H](CC(C)C)C(=O)N[C@@H](C)C(=O)N[C@H](C(=O)N[C@@H](CC(C)C)C(=O)N1CCC[C@H]1C(=O)N[C@@H](CCCNC(=N)N)C(=O)N[C@H](C(=O)N[C@@H](CCC(=O)O)C(=O)N[C@H](C(=O)NCC(=O)N[C@H](C(=O)NCC(=O)N[C@H](C(=O)N1CCC[C@H]1C(N)=O)[C@@H](C)O)[C@@H](C)O)[C@@H](C)O)[C@@H](C)O)[C@@H](C)O [compound 74, [N-terminal(C20 diacid-gGlu), des1, 30T, 31G, 32T]mimylin] ({C20 diacid-γGlu}-ASELSTAALGRLSAELHELATLPRTETGTGTP-NH2) | ≧200 μM | ≧200 μM | ≧200 μM | ≧200 μM | ≧200 μM | ≧200 μM | ≧200 μM | ≧200 μM | – | – |
| CC(C)C[C@H](NC(=O)[C@H](C)NC(=O)[C@H](C)NC(=O)[C@@H](NC(=O)[C@H](CO)NC(=O)[C@H](CC(C)C)NC(=O)[C@H](CCC(=O)O)NC(=O)[C@H](CO)NC(=O)[C@H](C)NC(=O)CC[C@H](NC(=O)CCCCCCCCCCCCCCCCCCC(=O)O)C(=O)O)[C@@H](C)O)C(=O)NCC(=O)N[C@@H](CCCNC(=N)N)C(=O)N[C@@H](CC(C)C)C(=O)N[C@@H](CO)C(=O)N[C@@H](C)C(=O)N[C@@H](CCC(=O)O)C(=O)N[C@@H](CC(C)C)C(=O)N[C@@H](Cc1cnc[nH]1)C(=O)N[C@@H](CCC(=O)O)C(=O)N[C@@H](CC(C)C)C(=O)N[C@@H](CO)C(=O)N[C@H](C(=O)N[C@@H](Cc1ccc(O)cc1)C(=O)N1CCC[C@H]1C(=O)N[C@@H](CCCNC(=N)N)C(=O)N[C@H](C(=O)N[C@@H](CCC(=O)O)C(=O)N[C@H](C(=O)NCC(=O)N[C@@H](CO)C(=O)NCC(=O)N[C@@H](CO)C(=O)N1CCC[C@H]1C(N)=O)[C@@H](C)O)[C@@H](C)O)[C@@H](C)O [compound 82, [N-terminal(C20 diacid-gGlu), des1, 21S, 23Y, 30S, 31G]mimylin] ({C20 diacid-γGlu}-ASELSTAALGRLSAELHELSTYPRTETGSGSP-NH2) | ≧200 μM | ≧200 μM | – | ≧200 μM | ≧200 μM | ≧200 μM | ≧200 μM | ≧200 μM | – | 1 (≈ 3.74 µg/mL) |
